# Measured values reported in ChEMBL document CHEMBL5257061, “Structural Study of Potent Triazole-Based Inhibitors of Staphylococcus aureus Biotin Protein Ligase” (ACS Med Chem Lett, 2023).
# How the values were obtained:
# [1] = Inhibition of recombinant Staphylococcus aureus C-terminal hexahistidine tagged Biotin protein ligase expressed in Escherichia coli BL21 (DE3) assessed as inhibition constant incubated for 30 mins by [3H]-Biotin incorporation based radioactivity based assay
# [2] = Inhibition of recombinant Staphylococcus aureus C-terminal hexahistidine tagged Biotin protein ligase expressed in Escherichia coli BL21 (DE3) assessed as inhibition constant incubated for 10 mins in presence of ATP by [3H]-Biotin incorporation based liquid scintillation counting analysis
# [3] = Inhibition of Staphylococcus aureus Biotin protein ligase assessed as inhibition constant
# Staphylococcus aureus [4] = assay: Antibacterial activity against Staphylococcus aureus ATCC 49775 assessed as inhibition of bacterial growth; format: functional
# Staphylococcus aureus [5] = assay: Antibacterial activity against Staphylococcus aureus ATCC 49775 assessed as inhibition of bacterial growth incubated for 16 to 20 hrs by CLSI protocol based two-fold serial dilution method; format: functional; conditions: time 16-20 hrs
# [6] = Inhibition of Staphylococcus aureus Biotin protein ligase assessed as inhibition constant by biotinylation assay
MIC (Staphylococcus aureus [5]) [µg/mL],SMILES,Ki [6] [nM],further results
–,Nc1ncnc2c1ncn2[C@@H]1O[C@H](COP(=O)(O)OCCCCC[C@@H]2SC[C@@H]3NC(=O)N[C@@H]32)[C@@H](O)[C@H]1O,–,Ki [1]: 30 nM
–,Cc1ccc2oc(=O)n(CCCCn3cc(CCCCC[C@@H]4SC[C@@H]5NC(=O)N[C@@H]54)nn3)c2c1,–,Ki [2]: 230 nM
–,O=C1N[C@H]2[C@H](CS[C@H]2CCCCCc2cn(Cc3cccc(F)c3)nn2)N1,–,Ki [2]: 670 nM
–,O=C1N[C@H]2[C@H](CS[C@H]2CCCCCc2cn(Cc3ccc(C(=O)O)cc3)nn2)N1,–,Ki [2]: 280 nM
–,Nc1cc(CNC(=O)c2ccc(C(c3cccc(F)c3)n3cc(CCCCC[C@@H]4SC[C@@H]5NC(=O)N[C@@H]54)nn3)cc2)ccn1 (some centres not stated),–,Ki [3]: 8.43 nM; MIC (Staphylococcus aureus [4]): 8 µg/mL
> 64,NCCCNC(=O)c1ccc(C(c2cccc(F)c2)n2nnc(CCCCC[C@@H]3SC[C@@H]4NC(=O)N[C@@H]43)c2F)cc1 (some centres not stated),268,–
> 64,NC(=O)CCCCNC(=O)c1ccc(C(c2cccc(F)c2)n2cc(CCCCC[C@@H]3SC[C@@H]4NC(=O)N[C@@H]43)nn2)cc1 (some centres not stated),246,–
> 64,O=C1N[C@H]2[C@H](CS[C@H]2CCCCCc2cn(C(c3ccc(C(=O)NCc4ccncc4)cc3)c3cccc(F)c3)nn2)N1 (some centres not stated),130,–
> 64,O=C1N[C@H]2[C@H](CS[C@H]2CCCCCc2cn(C(c3ccc(C(=O)NCc4ccccn4)cc3)c3cccc(F)c3)nn2)N1 (some centres not stated),544,–
–,Cc1ccc2oc(=O)n(CCCCn3nnc(CCCCC[C@@H]4SC[C@@H]5NC(=O)N[C@@H]54)c3F)c2c1,–,Ki [2]: 420 nM
–,Nc1ncnc2c1ncn2[C@@H]1O[C@H](Cn2cc(CCCCC[C@@H]3SC[C@@H]4NC(=O)N[C@@H]43)nn2)[C@@H](O)[C@H]1O,–,Ki [1]: 1170 nM
4,NC(=O)CCCNC(=O)c1ccc(C(c2cccc(F)c2)n2cc(CCCCC[C@@H]3SC[C@@H]4NC(=O)N[C@@H]43)nn2)cc1 (some centres not stated),10,–
8,NCCCNC(=O)c1ccc(C(c2cccc(F)c2)n2cc(CCCCC[C@@H]3SC[C@@H]4NC(=O)N[C@@H]43)nn2)cc1 (some centres not stated),30,–
> 64,Nc1cc(CNC(=O)c2ccc(C(c3cccc(F)c3)n3nnc(CCCCC[C@@H]4SC[C@@H]5NC(=O)N[C@@H]54)c3F)cc2)ccn1 (some centres not stated),131,–
–,O=C1N[C@H]2[C@H](CS[C@H]2CCCCCc2cn(C(c3ccc(C(=O)NCCc4c[nH]cn4)cc3)c3cccc(F)c3)nn2)N1 (some centres not stated),–,Ki [3]: 6.01 nM; MIC (Staphylococcus aureus [4]): 1 µg/mL
32,O=C1N[C@H]2[C@H](CS[C@H]2CCCCCc2cn(C(c3ccc(C(=O)NCCCc4c[nH]cn4)cc3)c3cccc(F)c3)nn2)N1 (some centres not stated),181,–
> 64,Nc1ccc(CNC(=O)c2ccc(C(c3cccc(F)c3)n3cc(CCCCC[C@@H]4SC[C@@H]5NC(=O)N[C@@H]54)nn3)cc2)cc1 (some centres not stated),63,–
> 64,O=C1N[C@H]2[C@H](CS[C@H]2CCCCCc2cn(C(c3ccc(C(=O)NCc4cccnc4)cc3)c3cccc(F)c3)nn2)N1 (some centres not stated),237,–
> 64,O=C1N[C@H]2[C@H](CS[C@H]2CCCCCc2cn(C(c3ccc(C(=O)NCc4ccccc4)cc3)c3cccc(F)c3)nn2)N1 (some centres not stated),867,–
